# Measurements as given in US20120041036A1, “SUBSTITUTED ACYLGUANIDINE DERIVATIVES (AS AMENDED)” (priority 2009, published 2012).
# Counter-ions that a name gives are not always drawn.
# Assays:
# [1] = test system: hyperactivity caused by MK-801; assay: Improvement effect on increase in motion induced by methamphetamine or MK-801 in mice; assay type: in vivo; conditions: male ICR mouse; oral dose 0.03 mg/kg; MK-801 0.3 mg/kg i.p.; motion measured 60 minutes; significance P<0.05
# Description: The improvement effect of compound of formula (I) was evaluated by measuring the quantity of motion by IR irradiation when a compound was administered to a mouse in which hyperactivity was caused by methamphetamine (hereinafter, simply referred to as “MAP”) or MK-801, known as an animal model of schizophrenia.
# An animal was taken out of a breeding cage, orally administered with a compound to be tested, and then placed into a cage for breeding. After 30 minutes, the animal was put into a cage for measurement, and the motion with the compound to be tested alone was measured. Further, after 30 to 90 minutes, the animal was taken out, and intraperitoneally administered with a drug for increasing the motion (MAP; 1 mg/kg or MK-801; 0.3 mg/kg, dissolved in a physiological saline, respectively). Then, the motion for a certain period of time (60 minutes) was measured by using a motion measurement device (CompACT AMS from Muromachi Kikai Co., Ltd.) by means of an infrared sensor.
# For a normal mouse (a mouse administered with physiological saline) and a mouse administered with a drug for increasing the motion, a Student's T test was performed for evaluation for each interval. For a group administered with the compound to be tested, an assay was performed using a solvent (vehicle) group and a Dunnett's T test. […]
# human 5-HT5A receptor = target: T1, human 5-HT5A receptor (Homo sapiens, UniProt P47898); assay: Test on a human 5-HT5A receptor binding inhibition ([3H]5-CT, membrane from HEK293 cells); conditions: for Ki: membrane from HEK293 cells expressing human 5-HT5A receptor, Ki calculated from IC50 and Kd of [3H]5-CT
# T1 construct: expressed in transfected cells; membrane preparation
# Description: The ORF (open reading frame; protein coding region) of a human 5-HT5A receptor (Genbank AF498985) was cloned from a human hippocampus cDNA library, and then inserted into a pCR2.1 vector (Invitrogen), and Escherichia coli containing the plasmid was cultured in a large amount. Next, the full-length cDNA sequence of the human 5-HT5A receptor was analyzed, and recombined into a pCDNA3.1 vector (Invitrogen) as an expression vector and cultured in a large amount. HEK293 established cells (ATCC) derived from the human fetal kidney were seeded, the expression plasmid (1 μg) obtained above were added thereto with LIPOFECTAMINE 2000 (Invitrogen; 2 μl), the gene was transfected into HEK293 cells, and the expression cells were screened with a drug-resistant marker, Geneticin (G418 sulfate 500 μg/ml; Kanto Chemical Co., Inc.). Thus prepared recombinant cells which expressed the gene were cultured in a medium containing D-MEM (Dulbecco's modified eagle medium, Sigma), 10% FCS (Fetal calf serum: fetal bovine serum), 1% Pc./Sm (Penicillin/Streptomycin, Invitrogen), and 500 μg/ml G418 for 3 days. These experimental operations followed a manual for gene operation experiment and an instruction appended in a reagent, and the like, such as a known method (Sambrook, J. et al, Molecular Cloning—A Laboratory Manual”, Cold Spring Harbor laboratory, NY, 1989).
# HEK293 cells for forced expressions of a human 5-HT5A receptor were cultured in a F500 plate, and scraped with a scraper. After centrifugation, the precipitate was collected, and an incubation buffer (50 mM Tris (HCl) (pH 7.4), 10 mM MgSO4, and 0.5 mM EDTA (ethylenediamine tetraacetic acid)) was added thereto. After homogenization, it was further centrifuged, and the incubation buffer was added to the precipitate, followed by thoroughly suspending. The operation was repeated, and protein concentration was measured, thereby completing preparation of the membrane.
# A solution of the compound to be tested and 100 μM 5-CT (5-carboxamidetriptamine) in DMSO was added to a 96-well plate at 2 μl/well, suspended in an incubation buffer, and a membrane from HEK293 cells for forced expressions of a human 5-HT5A receptor prepared at 200 μg/ml was added at 100 μl/well. After incubation at room temperature for 15 minutes, a [^3H]5-CT solution (2 nM [^3H]5-CT, incubation buffer) was added thereto at 100 μl/well.
# Separately, 100 μl of the solution was distributed into a liquid scintillation vial, and 2 ml of Aquasol II (registered trademark) was added thereto, followed by stirring. Then, radioactivity was measured by a liquid scintillation counter. It was incubated at 37° C. for 60 minutes. The reaction mixture was sucked into 96-well GF/C filter plate that had been pre-treated with 0.2% polyethyleneimine, and washed six times with an ice-cooled, 50 mM Tris (pH 7.5) buffer. The GF/C filter plate was dried.
# Microscint TMPS (registered trademark) was added thereto at 40 μl/well. Radioactivity remaining on the GF/C filter plate was measured by a top counter.
# The [^3H]5-CT binding inhibiting activity by the compound to be tested in each experiment was determined as an IC50 value with a radioactivity upon addition of DMSO alone being 0% inhibition, and a radioactivity upon addition of 1 μM 5-CT being 100% inhibition. Separately, Ki values were calculated from the Kd value of the [^3H]5-CT determined from Scatchard analysis, by the following equation.
# T1 sequence (P47898 whole entry): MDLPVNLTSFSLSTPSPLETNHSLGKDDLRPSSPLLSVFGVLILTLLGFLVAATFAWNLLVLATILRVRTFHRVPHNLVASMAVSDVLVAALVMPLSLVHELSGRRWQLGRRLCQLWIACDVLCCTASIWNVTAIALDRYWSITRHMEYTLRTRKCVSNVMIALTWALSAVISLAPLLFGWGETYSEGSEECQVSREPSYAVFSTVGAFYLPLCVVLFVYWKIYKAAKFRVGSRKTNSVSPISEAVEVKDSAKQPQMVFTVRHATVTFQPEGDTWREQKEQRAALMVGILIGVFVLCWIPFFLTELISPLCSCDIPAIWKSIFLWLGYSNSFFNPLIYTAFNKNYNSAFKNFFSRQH
SMILES,Ki (human 5-HT5A receptor) [nM],also measured
"N#Cc1ccc2ccc(C(=O)N=C(N)N)cc2c1-c1c(F)cccc1Cl [Example 1, 8-(2-chloro-6-fluorophenyl)-7-cyano-N-(diaminomethylene)-2-naphthamide hydrochloride]",4.3,inhibition of hyperactivity (motion) caused by MK-801 [1]: significantly inhibited
N#Cc1ccc2ccc(C(=O)N=C(N)N)cc2c1-c1c(F)cc(F)cc1F [Example 2],1 to 30,–
N#Cc1ccc2ccc(C(=O)N=C(N)N)cc2c1-c1ccncc1Cl [Example 3],30 to 300,–
N#Cc1ccc2ccc(C(=O)N=C(N)N)cc2c1-c1ccncc1F [Example 4],30 to 300,–
N#Cc1cc(F)c(-c2c(F)cc(F)cc2F)c2cc(C(=O)N=C(N)N)ccc12 [Example 5],1 to 30,–
N#Cc1ccc2ccc(C(=O)N=C(N)N)cc2c1-c1ccc(F)cc1F [Example 6],1 to 30,–
N#Cc1ccc2ccc(C(=O)N=C(N)N)cc2c1-c1c(F)cccc1F [Example 7],1 to 30,–
COc1cccc(F)c1-c1c(C#N)ccc2ccc(C(=O)N=C(N)N)cc12 [Example 8],1 to 30,–
N#Cc1ccc2ccc(C(=O)N=C(N)N)cc2c1-c1ccccc1Cl [Example 9],1 to 30,–
N#Cc1ccc2ccc(C(=O)N=C(N)N)cc2c1-c1ccccc1F [Example 10],1 to 30,–
CSc1ccc2ccc(C(=O)N=C(N)N)cc2c1-c1c(F)cc(F)cc1F [Example 12],1 to 30,–
CS(=O)(=O)c1ccc2ccc(C(=O)N=C(N)N)cc2c1-c1c(F)cc(F)cc1F [Example 13],30 to 300,–
N#Cc1ccc2ccc(C(=O)N=C(N)N)cc2c1-c1ccc(F)cc1 [Example 14],1 to 30,–
COc1cc(C#N)ccc1-c1c(C#N)ccc2ccc(C(=O)N=C(N)N)cc12 [Example 15],30 to 300,–
N#Cc1ccc2ccc(C(=O)N=C(N)N)cc2c1C1=CCOCC1 [Example 16],30 to 300,–
N#Cc1ccc2ccc(C(=O)N=C(N)N)cc2c1-c1c(F)cc(CO)cc1F [Example 17],30 to 300,–
N#Cc1ccc2ccc(C(=O)N=C(N)N)cc2c1-c1c(F)cncc1F [Example 18],1 to 30,–
N#Cc1cc(F)c(-c2ccncc2)c2cc(C(=O)N=C(N)N)ccc12 [Example 19],30 to 300,–
N#Cc1ccc2ccc(C(=O)N=C(N)N)cc2c1-c1ccccc1 [Example 20],1 to 30,–
N#Cc1ccc2ccc(C(=O)N=C(N)N)cc2c1C1CC1 [Example 21],30 to 300,–
"NCCc1c[nH]c2ccc(C(N)=O)cc12 [[^3H]5-CT, 5-carboxamidetriptamine, reference compound]",–,"Kd (human 5-HT5A receptor; human 5-HT5A receptor membrane, read-out: Kd value of [3H]5-CT determined from Scatchard analysis): 4.95 nM"
